Source: US7241439B2, “Biopesticide compositions” (Faculte Universitaire des Sciences Agronomiques de Gembloux, priority 2001, dated 2007)
Structures can show the parent of a compound that is named as a salt.

Assays:
B. cinerea = assay: Protection of wounded apples against postharvest rot (lesion diameter); type: in vivo
Protocol: (§1) Apples (Malus domestics Borkh cv. Golden) were harvested from commercial orchards maintained with standard cultural practices in Belgium and placed in regular long term storage. Commercial class I fruits were used. They were bought from wholesale dealers and stored in a cold room at 4±1° C. for maximum 15 days before use.
(§2) B. cinerea (grey mould) and Penicillium expansum (blue mould) strains were initially isolated from strawberries and apples respectively in Gembloux.
(§3) Conidia from the two pathogenic strains were put in suspension in a glycerol solution (25%) and stored at −70° C. Another storage method consisted of growing the pathogen on Potato Dextrose Agar (PDA) in tubes, covering it then by paraffin oil and keeping the tubes at 25° C. Starting from this stored material, the two fungal strains were transferred to oat medium at 25° C. Conidial suspensions were prepared in an aqueous sterile solution of Tween 20 (0.05%), and were adjusted to the required concentration (10^6 spores/ml) using a Bärker cell.
(§4) Before use, the micro-organisms were subcultured three times successively at 24 hours intervals on PDA (Potato Dextrose Agar). At the third generation, yeast cells were removed from the culture medium and suspended in isotonic water (NaCl 0.85%). Suspension concentrations were adjusted to the required values after the establishment of a regression line in relation with the micro-organisms suspension absorbance (at 595 nm) and the number of colony forming units (cfu) of the same suspension spread onto PDA.
(§5) Fruits were disinfected by dipping for 2 minutes in sodium hypochlorite (10% of the commercial product). They were rinsed in sterile water and dried out under laminar flux before being wounded by removing 6 mm diameter and 3 mm deep blocks of tissue from two sites 4-5 cm apart along the equatorial line of the fruits.
(§6) The wounds were treated by application of 50 μl of compositions of the state of the art or compositions of the invention.
(§7) After a 24 h at 20° C. incubation period in plastic boxes, the wounds have been inoculated with 50 μl of the respective conidial suspensions of the pathogens. The fruits were incubated during one to three weeks at 25° C.
The diameters of the lesions developing around the wounds were measured after 7, 10, 14 and up to 20 days after treatment. Four fruits (8 wounds) were used per treatment.
(§8) The percentage of protection provided by the different treatments is calculated from the diameter of lesion caused by the fruit rot agent after the incubation time using the following formula:
(§9) [formula] where Y is the percentage of protection; DT is the mean diameter of lesions for the untreated control and Dx is the mean diameter of lesions for the treated fruits.
(§10) Vegetal material, pathogens, antagonistic micro-organisms and treatment method were as in example 1. The wounds were treated by application of 50 pi of compositions of the state of the art or compositions of the invention. The effect of the compositions against postharvest apple rots caused by B. cinerea has been evaluated under controlled conditions.

P. expansum = assay: as above; type: in vivo, Penicillium expansum
Protocol: as §1, §2, §3, §4, §5, §6, §7
[…] Four fruits (8 wounds) were used per treatment.
as §8, §9, §10

P. digitatum = assay: Protection of wounded oranges against green mould; type: in vivo, Penicillium digitatum strain CBS31948; conditions: Table 7, GA 0.01% w/v
Protocol: Oranges (Citrus sinensis (L.) Ohl. cv. Valencia) were bought from wholesale dealers and stored in a cold room at 4±1° C. for maximum 15 days before use.
Penicillium digitatum strain CBS31948 (green mould of oranges) was obtained from the CentraalBureau Schimmelcultures, Netherlands collection and initially isolated from Citrus fruits. Conidia from the pathogenic strain were put in suspension in a glycerol solution (25%) and stored at −70° C. Starting from this stored material, the fungal strain was transferred to oat medium at 25° C. Conidial suspensions were prepared in an aqueous sterile solution of Tween 20 (0.05%). Before use, suspensions have been adjusted to the required concentration (10^5 spores/ml) using a Barker cell.
The antagonistic yeast strain P. anomala “strain K” was obtained as in example 1. C. oleophila strain I-182 commercialised under the name Aspire™ was obtained from Ecogen Inc. Both microorganisms were subcultured as in example 1.
Fruits were disinfected and wounded as in example 1. […] The percentage of protection is calculated as in example 1.
Vegetal material, pathogens, antagonistic agents and treatment method were as in example 3. […] The effect of the compositions against postharvest rots caused by P. digitatum has been evaluated under controlled conditions.

[1] = Table 12, M (mannans) 0.02% w/v

mannans
% protection against B. cinerea after 7 days (B. cinerea; [1]): 100%
% protection against B. cinerea after 10 days (B. cinerea; [1]): 78%
% protection against B. cinerea after 14 days (B. cinerea; [1]): 55%
% protection against B. cinerea after 20 days (B. cinerea; [1]): 16%
% protection against B. cinerea after 7 days (B. cinerea; Table 12, M (mannans) 0.2% w/v): 100%
% protection against B. cinerea after 10 days (B. cinerea; Table 12, M (mannans) 0.2% w/v): 93%
% protection against B. cinerea after 14 days (B. cinerea; Table 12, M (mannans) 0.2% w/v): 68%
% protection against B. cinerea after 20 days (B. cinerea; Table 12, M (mannans) 0.2% w/v): 26%
% protection against B. cinerea after 7 days (B. cinerea; Table 13, M 0.02% w/v): 100%
% protection against B. cinerea after 10 days (B. cinerea; Table 13, M 0.02% w/v): 78%
% protection against B. cinerea after 14 days (B. cinerea; Table 13, M 0.02% w/v): 55%
% protection against B. cinerea after 20 days (B. cinerea; Table 13, M 0.02% w/v): 16%
% protection against B. cinerea after 7 days (B. cinerea; Table 13, M 0.2% w/v): 100%
% protection against B. cinerea after 10 days (B. cinerea; Table 13, M 0.2% w/v): 93%
% protection against B. cinerea after 14 days (B. cinerea; Table 13, M 0.2% w/v): 68%
% protection against B. cinerea after 20 days (B. cinerea; Table 13, M 0.2% w/v): 28%

O=C[C@H](O)[C@@H](O)[C@H](O)[C@H](O)C(=O)O [GU, glucuronic acid (sodium salt)]
% protection against B. cinerea after 7 days (B. cinerea; Table 1, GU 0.001% w/v): 75%
% protection against B. cinerea after 10 days (B. cinerea; Table 1, GU 0.001% w/v): 46%
% protection against B. cinerea after 14 days (B. cinerea; Table 1, GU 0.001% w/v): 46%
% protection against B. cinerea after 20 days (B. cinerea; Table 1, GU 0.001% w/v): 21%
% protection against B. cinerea after 7 days (B. cinerea; Table 2, GU 0.001% w/v): 75%
% protection against B. cinerea after 10 days (B. cinerea; Table 2, GU 0.001% w/v): 46%
% protection against B. cinerea after 14 days (B. cinerea; Table 2, GU 0.001% w/v): 46%
% protection against B. cinerea after 20 days (B. cinerea; Table 2, GU 0.001% w/v): 21%

O.O=C[C@H](O)[C@@H](O)[C@@H](O)[C@H](O)C(=O)O [GA, galacturonic acid (monohydrate)]
% protection against B. cinerea after 7 days (B. cinerea; Table 1, GA 0.01% w/v): 49%
% protection against B. cinerea after 10 days (B. cinerea; Table 1, GA 0.01% w/v): 42%
% protection against B. cinerea after 14 days (B. cinerea; Table 1, GA 0.01% w/v): 22%
% protection against B. cinerea after 20 days (B. cinerea; Table 1, GA 0.01% w/v): 2%
% protection against B. cinerea after 7 days (B. cinerea; Table 2, GA 0.001% w/v): 87%
% protection against B. cinerea after 10 days (B. cinerea; Table 2, GA 0.001% w/v): 47%
% protection against B. cinerea after 14 days (B. cinerea; Table 2, GA 0.001% w/v): 33%
% protection against B. cinerea after 20 days (B. cinerea; Table 2, GA 0.001% w/v): 0%
% protection against B. cinerea after 7 days (B. cinerea; Table 3, GA 0.01% w/v): 12%
% protection against B. cinerea after 7 days (B. cinerea; Table 13, GA 0.001% w/v): 87%
% protection against B. cinerea after 10 days (B. cinerea; Table 13, GA 0.001% w/v): 47%
% protection against B. cinerea after 14 days (B. cinerea; Table 13, GA 0.001% w/v): 33%
% protection against B. cinerea after 20 days (B. cinerea; Table 13, GA 0.001% w/v): 0%
% protection against P. expansum After 7 days (P. expansum; Table 3, GA 0.01% w/v): 18%
% protection against P. expansum after 6 days (P. expansum; Table 4, GA 0.001% w/v): 15%
% protection against P. expansum after 8 days (P. expansum; Table 4, GA 0.001% w/v): 9%
% protection against P. expansum after 10 days (P. expansum; Table 4, GA 0.001% w/v): 7%
% protection against P. digitatum after 7 days (P. digitatum): 58%
% protection against P. digitatum after 10 days (P. digitatum): 36%

polygalacturonic acid [PGA, reference compound]
% protection against P. expansum after 6 days (P. expansum; Table 4, PGA 0.001% w/v): 19%
% protection against P. expansum after 8 days (P. expansum; Table 4, PGA 0.001% w/v): 12%
% protection against P. expansum after 10 days (P. expansum; Table 4, PGA 0.001% w/v): 10%
